Data from publication PMC6697720, “Saturation of acyl chains converts cardiolipin from an antagonist to an activator of Toll-like receptor-4” (Cellular and Molecular Life Sciences: CMLS, 2019).

Biological target: T1, murine TLR4, MD2, and CD14 (Mus musculus, UniProt Q9JHF9+Q9QUK6)
T1 construct: expressed in transfected cells; host or cells: HEK293 (ATCC CRL1573), transient transfection with jetPEI
T1 sequence (Q9QUK6 26-835): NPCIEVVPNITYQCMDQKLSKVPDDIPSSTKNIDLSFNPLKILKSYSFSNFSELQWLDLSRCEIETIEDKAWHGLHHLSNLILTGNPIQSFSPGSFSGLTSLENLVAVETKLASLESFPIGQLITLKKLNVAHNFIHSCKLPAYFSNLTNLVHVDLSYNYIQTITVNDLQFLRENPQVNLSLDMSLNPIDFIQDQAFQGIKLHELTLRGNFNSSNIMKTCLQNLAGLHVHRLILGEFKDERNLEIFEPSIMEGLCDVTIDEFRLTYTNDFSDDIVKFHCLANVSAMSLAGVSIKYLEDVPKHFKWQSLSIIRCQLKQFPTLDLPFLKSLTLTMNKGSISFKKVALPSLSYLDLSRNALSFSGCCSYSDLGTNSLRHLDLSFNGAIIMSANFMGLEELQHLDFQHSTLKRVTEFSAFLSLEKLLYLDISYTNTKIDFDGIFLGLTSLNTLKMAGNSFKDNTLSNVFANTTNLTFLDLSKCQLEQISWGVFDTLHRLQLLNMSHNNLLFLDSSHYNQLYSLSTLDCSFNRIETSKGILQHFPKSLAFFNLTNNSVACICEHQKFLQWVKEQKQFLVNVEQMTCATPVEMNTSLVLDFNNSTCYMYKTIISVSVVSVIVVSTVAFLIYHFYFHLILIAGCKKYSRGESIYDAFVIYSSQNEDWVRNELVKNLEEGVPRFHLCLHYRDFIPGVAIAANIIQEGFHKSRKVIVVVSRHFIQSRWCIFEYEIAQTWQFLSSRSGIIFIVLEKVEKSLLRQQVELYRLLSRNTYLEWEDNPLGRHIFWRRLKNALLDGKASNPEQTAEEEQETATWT
T1 sequence (Q9JHF9 19-160): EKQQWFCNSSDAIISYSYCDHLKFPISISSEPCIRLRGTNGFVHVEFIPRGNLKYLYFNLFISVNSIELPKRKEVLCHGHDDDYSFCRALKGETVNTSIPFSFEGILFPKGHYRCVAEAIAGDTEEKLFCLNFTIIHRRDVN
Experiment: NF-κB luciferase reporter activation by CLs in HEK293 cells transfected with murine TLR4, MD2 and CD14
Format: cell-based
Details: 6 h incubation
Experimental: Cells were seeded at 4 × 10^4 cells/mL in 96-well plates (200 μL/well) and transiently transfected 4 days later. Expression vectors containing an NF-κB transcription reporter vector-encoding firefly luciferase (10 ng/well pNF-κB-luc from Clontech), and a constitutively active reporter vector-encoding Renilla luciferase (5 ng/well phRG-TK; Promega), together with empty vector (pcDNA3.1 from Invitrogen Cat. N. V79020) and cDNA encoding human membrane CD14 (3 ng/well) and human or murine TLR4 and MD2 (3 ng/well) were mixed with jetPEI (Polyplus transfection Cat.N. 101-10N) and incubated with cells according to the manufacturer’s instructions.
After treatment supernatants were discarded, cells were washed with PBS and lysed with passive lysis buffer (Promega Cat.N. E1941). Luciferase and Renilla activity on cell lysates were quantified on a BioTek Synergy HT microplate reader using home-made luciferase reagent (20 mM Tricine, 2.67 mM MgSO4·7H2O, 0.265 mM (MgCO3)4Mg(OH)2·5H2O, 0.1 mM EDTA, 33.3 mM DTT, 530 μM ATP, 270 μM Acetyl Coenzyme A (Lithium salt), 470 μM luciferin (Biosynth), pH 7.8, diluted two times in water before use), or coelenterazine (Biosynth) dissolved in ethanol at 1 mg/mL and diluted 500 times in PBS before use as previously described. […]

activation of murine TLR4 (NF-κB): agonist
Compound: CCCCCCCCCCCCCC(=O)OC[C@H](COP(=O)(O)OCC(O)COP(=O)(O)OC[C@@H](COC(=O)CCCCCCCCCCCCC)OC(=O)CCCCCCCCCCCCC)OC(=O)CCCCCCCCCCCCC (stereo partly shown) [C14:0 CL]
